From patent publication US20120039808A1, “Brain Tumor Stem Cell Differentiation Promoter, and Therapeutic Agent for Brain Tumor” (The University of Tokyo, priority 2009, published 2012)
Entries after “also recorded” stand apart in the source; their conditions may differ.

Experiments:
[1] = system: SMAD complexes binding to Sox4 promoters; test: Chromatin immunoprecipitation with SMAD2 and SMAD3 antibodies; assay type: cell-based, human; conditions: TGS-01; 1.5 hours; TGF-β 100 μM or SB431542 1 μM
Protocol: (§1) Chromatin immunoprecipitation was implemented using the method described by Koinuma et al. (Molecular and Cellular Biology, 2009, 29:172-186, 10.1128/MCB, 01038-08). After reverse cross-linking, the DNA was processed using proteinase K, and refined using a PCR purification kit (Qiagen). The DNA was eluted into 30 μL of TE, and used in either PCR or quantitative real-time PCR. The primers used in the PCR are as described below.
To verify that Sox4 is a direct TGF-β marker, chromatin immunoprecipitation assay was implemented using antibodies to SMAD2 and SMAD3, which are DNA binding signal mediators for the TGF-β signals. Specifically, TGS-01 cells were processed for 1.5 hours using either TGF-β (100 μM), or SB431542 (1 μM), and the eluted DNA was supplied for either real-time PCR or RT-PCR. In real-time PCR, the measured values were normalized using the first introns of hypoxanthine phosphoribosyltransferase (HPRT). […] (See FIG. 6F.)

Sox2 protein = Sox2 protein level by immunoblotting; assay type: cell-based, human; conditions: 24-hour processing; TGF-β 100 μM or SB431542 1 μM
Protocol: The cells were dissolved in a buffer including 1% Nonidet P-40, 20 mM Tris-hydrochloride (pH7.4), 150 mM sodium chloride, 1 mM PMSF, 1% aprotinin, and 5 mM EDTA. The proteins refined from the cytolized product was supplied to SDS-PAGE, and transferred to a Fluoro Trans W Membrane (Pall). Immunoblotting was implemented using various types of antibodies.
Moreover, it was also verified that the 24-hour processing using TGF-β (100 μM) or SB431542 (1 μM) suppressed the expression of Sox2 protein levels. (See FIG. 4C.) In the diagram, α-tubulin is the loading control.

[2] = system: Sox4 recruitment to the Sox2 enhancer region; test: Chromatin immunoprecipitation with Sox4 antibodies; assay type: cell-based, human; conditions: TGS-01; 24 hours; TGF-β 100 μM or SB431542 1 μM
Protocol: as §1
To verify that this control is direct, chromatin immunoprecipitation assay was implemented using Sox4 antibodies. It has previously been reported that the enhancer region located in the Sox2 gen 3′ flanking region is important for controlling Sox2 expression. (Chew et al., Molecular and Cellular Biology, 2005, 25:6031-6046; Tomioka et al., Nucleic Acids Research, 2002, 30: 3202-3213.) This region includes the consensus binding motif CATTGTA to Sox4. […]
Here, TGS-01 cells were processed for 24 hours using either TGF-β (100 μM), or SB431542 (1 μM), and the eluted DNA analyzed using quantitative real-time PCR. The measured values were normalized using HPRT first intron quantities. […] Further, to examine the effects of Sox4 knockdown on sox2 expression induction by TGF-β, siRNA was stained, and after for 24 hours, was processed for a further 24 hours using TGF-β (100 μM), and the Sox2 mRNA expression levels measured using real-time PCR. […]

Sox2 mRNA = Sox2 mRNA expression by quantitative real-time PCR; assay type: cell-based, human
Protocol: (§2) Quantitative real-time PCR was implemented according to the method by Ikushima et al. (EMBO J. 2008, 27: 2955-2965). All samples were implemented in triplicate. The data was normalized using glyceraldehyde 3-phosphate dehydrogenase (GAPDH).
In addition, siRNA (siSMAD2 and siSMAD3) were transfected to SMAD2 and SMAD3 in TGS-01 cells, and incubated for 24 hours, and then processed for TGF-β (100 μM), and the expression levels measured. […] (See FIG. 4B).
The induction of Sox2 expression by TGF-β was observed 24 hours after stimulation, but not observed after three hours. (See FIG. 4A.) Further, the effects of TGF-β on Sox2 expression in the presence of cycloheximide, which is a protein synthesis inhibitor, were examined. TGF-β (100 μM) processing was implemented for 24 hours, and after processing the TGF-β for 30 minutes, the cycloheximide processing was started, and the Sox2 expression levels were measured. In the presence of cycloheximide, which is a protein synthesis inhibitor, the induction of Sox2 expression was reduced. From these facts, it is thought that Sox2 expression is not induced directly by TGF-β, but rather, that it is controlled by other factors that are induced by TGF-β.

Sox4 mRNA = Sox4 mRNA expression by quantitative real-time PCR; assay type: cell-based, human; conditions: for Sox4 mRNA expression: TGS-01 and TGS-04, three hours and 24 hours, TGF-β 100 μM or SB431542 1 μM
Excerpt: as §2

[3] = system: CD133-positive cells in glioma spheres; test: Flow cytometry of CD133-positive cells; assay type: cell-based, human
Protocol: The cells were separated into single cells, and marked using phycoerythrin marker CD133 antibodies. The expression levels were measured using EXPO32 ADC software through a Beckman C EPICS XL flow cytometer.
(§3) Next, the effects of TGF-β (100 μM) or SB431542 (1 μM) were examined using flow cytometry. In the presence of TGF-β inhibitors, the percentage of CD133-positive cells in the glioma spheres was reduced. (See FIG. 3A.) Further, to examine the expression of neural precursor cell markers or neural cell differentiation markers in the glioma spheres, the spheres (TGS-01) were separated into single serum-free culture, and seeded on glass slides that had been coded using poly-L-ornithine (Sigma) and fibronectin (Sigma), and were then cultured for seven days together with TGF-β (100 μM) or the inhibitor SB431542 (1 μM). The cells were fixed using 3.7% paraformaldehyde, and the cell membrane was made permeable using 0.3% Triton […] including PBS, and incubated together with antibodies before immunostaining was implemented.

[4] = system: glioma-initiating cells (TGS-01, TGS-04); test: Sphere formation assay; assay type: cell-based, human
Protocol: GICs were cultivated for seven days using a non-tissue-culture-treated-flask with vent cap (BD Bioscience). The floating spheres were counted for each sample within five fields of vision under a microscope.
To clarify the role of TGF-β signals in glioma-initiating cells, first the effects due to TGF-β signal inhibition were examined. A sphere formation ability assay was implemented in the presence of either TGF-β or a TGF-β inhibitor (SB431542, 1 μM).
SB431542 can inhibit not only the TGF-β type I receptor (ALK5), but also activin/nodal type I receptor signals, so to identify the role of TGF-β signals, the effects of a TGF-β receptor II/Fc chimera on glioma-initiating cells were examined. The glioma-initiating cells were separated into single cells, and a sphere assay implemented in the presence of either human TGF-βRII/Fc chimera (1 μg/mL), or IgG1Fc (1 μg/mL) as a control.

[5] = system: Nestin, Musashi, GFAP, Tuj1 positive glioma-initiating cells; test: Immunostaining of neural precursor and differentiation markers; assay type: cell-based, human
Protocol: Glioma-initiating cells (GICs) were seeded on glass slides that had been coded using poly-L-ornithine (Sigma) and fibronectin (Sigma), and were then cultured for seven days together with various ligands or inhibitors in serum-free culture. The cells were fixed using 3.7% paraformaldehyde, and then the cell membrane was made permeable using 0.3% Triton […] including PBS, and incubated together with various antibodies.
as §3

[6] = system: TGS-01 cells transplanted intracranially; test: Intracranial proliferation assay; assay type: in vivo, BALB/c nu/nu mice
Protocol: Glioma-initiating cells (living cells […] in 5 μL of DMEM/F12 culture) were injected stereotaxically at a depth of 3 mm into the right cerebral hemisphere of five-week-old female BALB/c nu/nu mice. All animal testing was implemented according to the policies of the University of Tokyo animal testing committee.
Specifically, adenovirus-Sox4 or adenovirus-LacZ staining was implemented, and 5×10^4 TGS-01 cells either unprocessed or after 24 hours processing using a TGF-β inhibitor were transplanted intracranially. TGF-β is well-known to promote glioma cell proliferation, so to classify the results into effects on growth and effects in differentiation, SB431542 processing was implemented as pre-processing and not implemented continuously. Six mice were used for each condition, and evaluated using Kaplan-Meier analysis. The p values were determined using the long-rank test. […] Further, the results of histological analysis of the samples dissected 30 days after intracranial transplant are shown in FIG. 11 (Right). Tissue sections were stained using hematoxylin and eosin (HE).

[7] = system: Oct-4, NANOG, and LIF expression; test: Expression of stem cell markers Oct-4, NANOG, LIF; assay type: cell-based, human
Excerpt: as §2
(See FIG. 14.) Further, it has been reported that NANOG and LIF are induced in many cells by stimulating TGF-β. (Xu et al., Cell Stem Cell, 2008, 3: 206; Bruna et al., Cancer Cell, 2007, 11: 147-160.)

[8] = 24 hours after processing, TGF-β 100 μM or SB431542 1 μg (so in the source)
[9] = cells pre-processed with SB431542, 30 days after intracranial transplant

## NC(=O)c1ccc(-c2nc(-c3ccc4c(c3)OCO4)c(-c3ccccn3)[nH]2)cc1 [SB431542]
[1]
  binding of SMAD complexes to Sox4 promoters: clearly controlled
Sox2 protein
  expression of Sox2 protein levels: suppressed
[2]
  Sox4 recruitment to the Sox2 enhancer region: clearly reduced
Sox2 mRNA; [8]
  expression of Sox2 mRNA: suppressed
Sox2 mRNA; subsequently for seven days, SB431542 1 μg (so in the source)
  expression of Sox2 mRNA: low expression level continued
Sox4 mRNA
  Sox4 mRNA expression: down-regulated
[3]; SB431542 1 μM
  percentage of CD133-positive cells in the glioma spheres: reduced
[4]; SB431542 1 μM, seven days culture
  sphere formation ability of glioma-initiating cells: conspicuously reduced
[4]; SB431542 added to formed spheres
  spherical growth pattern of spheres that had once formed: became adhesion cells
[4]; TGS-01 over-expressing Sox4 (adenovirus-Sox4 vs adenovirus-LacZ), SB431542 1 μM, seven days
  sphere formation ability: fall in sphere formation ability was alleviated
[4]; glioma-initiating cells over-expressing Sox2, compared to LacZ over-expressing cells
  sphere formation abilities: reduced only slightly
[5]; TGS-01 over-expressing Sox4, SB431542, seven days
  percentages of Nestin-positive cells and GFAP-positive cells: no major changes
[5]; cells over-expressing Sox2
  percentage of GFAP-positive cells: did not increase
  percentage of Nestin-positive cells: did not fall
[6]; TGS-01 (adenovirus-LacZ) pre-processed 24 hours with SB431542 vs unprocessed control, Kaplan-Meier
  survival period of the mice: significantly longer
[6]; [9]
  neurological symptoms: did not show any neurological symptoms
  tumors on pathological examination using HE staining: did not reveal any tumors
[6]; glioma-initiating cells over-expressing Sox4, pre-processed with SB431542
  extension of survival periods: did not shown any effects

## CC1=C2C[C@H]3[C@@H](CC=C4C[C@@H](O)CC[C@@]43C)[C@@H]2CC[C@]12O[C@@H]1C[C@H](C)CN[C@H]1[C@H]2C [cyclopamine]
[4]; TGS-01, cyclopamine 2.5, 5, 10 μM vs SB431542 1 μM
  effects on sphere formation compared with SB431542: smaller than those of SB431542
[4]; TGS-01, cyclopamine combined with SB431542 1 μM
  effect on sphere formation of the two drugs combined: no additional or synergistic effect
[4]; cyclopamine 2.5, 5, and 10 μM, seven days
  sphere formation ability of TGS-01 cells: reduced

## C[C@@H]1C[C@@H]([C@H](O)CC2CC(=O)NC(=O)C2)C(=O)[C@@H](C)C1 [cycloheximide]
Sox2 mRNA; TGF-β 100 μM (so in the source) 24 hours, cycloheximide started after 30 minutes
  induction of Sox2 expression by TGF-β in the presence of cycloheximide: reduced
Sox4 mRNA
  Sox4 induction by TGF-β in the presence of cycloheximide: not influenced

## TGF-β
[1]
  binding of SMAD complexes to Sox4 promoters: bound directly
Sox2 protein
  expression of Sox2 protein levels: suppressed
[2]
  Sox4 recruitment to the Sox2 enhancer region: increased
[7]; TGS-01 or TGS-04 cells, TGF-β signals
  LIF expression: did not induce
[7]; processing using TGF-β or an inhibitor
  expression of Oct-4, NANOG, and LIF: not greatly affected
Sox2 mRNA; [8]
  expression of Sox2 mRNA: induced; also recorded: observed
Sox2 mRNA; three hours after TGF-β stimulation
  induction of Sox2 expression: not observed
Sox4 mRNA
  Sox4 mRNA expression: induced
[3]; adding TGF-β (100 μM [sic])
  CD133-positive ratio: did not greatly influence
[4]; adding TGF-β
  sphere formation ability: did not greatly influence
[5]; adding TGF-β (100 μM [sic]), seven days
  marker expression: did not greatly influence

B1: TGF-βRII/Fc: human TGF-β receptor II/Fc chimera (protein)
chain: TIPPHVQKSVNNDMIVTDNNGAVKFPQLCKFCDVRFSTCDNQKSCMSNCSITSICEKPQEVCVAVWRKNDENITLETVCHDPKLPYHDFILEDAASPKCIMKEKKKPGETFFMCSCSSDECNDNIIFSEEYNTSNPD
modifications: left off: a dimerising Fc or GST
notes: human TGF-β receptor II/Fc chimera
[4]; human TGF-βRII/Fc chimera 1 μg/mL, IgG1Fc 1 μg/mL as control
  efficiency in forming spheres: low
